{"source": "patent US8592648B2", "about": "“Seed treatment with combinations of pyrethrins/pyrethroids and thiamethoxam” (Monsanto Technology, LLC, priority 2000, dated 2013)", "key": {"black cutworm larvae": {"test_system": "black cutworm larvae", "assay": "Black cutworm feeding damage on corn shoots and foliage, seed treatment vs soil granular treatment (Reference Example 1)", "assay_type": "in vivo", "details": "for Plant Defol. 3 DAI / Plant Defol. 7 DAI / Plant Defol. 10 DAI: rating 1=no damage, 10=complete defoliation", "protocol": "This example compares the efficacy of seed treatment with lambda-cyhalothrin (CAS #91465-08-6) to soil granular treatments with tefluthrin (CAS #79538-32-2) against feeding damage by black cutworm larvae on shoots and foliage.\n(§1) A lambda-cyhalothrin seed treatment formulation was prepared by diluting the WARRIOR® T insecticide (Zeneca Ag Products, Wilmington, Del.), which contains 11.4% lambda-cyhalothrin as the active ingredient, into water as a carrier. This formulation was applied for one minute at room temperature to twenty-five grams of Pioneer corn seed (Cultivar PN3394) in a rotostatic seed treater at a rate of 125 g, 250 g or 500 g active ingredient (Al) to 100 kg seed. The treated seeds were allowed to sit uncapped for four to twenty-four hours before planting.\n(§2) Treated and untreated seeds (Pioneer hybrid PN3394) were planted in a soil mix consisting of Dupo silt loam, 30% Perlite, 20% coarse sand (WB-10 grade) in six groups of tubs (20 in. L×15 in. W×8 in. D). Twelve seeds were planted per tub and three tubs were planted for each treatment regimen. Soil applications of FORCE® 3GR, which contains 3% tefluthrin granule as the active ingredient, were used for two sets of tubs containing untreated seeds. The FORCE 3GR was applied either in-furrow or incorporated into a 5 inch band on the soil surface at the time of planting. The tubs were overhead irrigated until the plants were infested with black cutworm larvae.\nThe rate of application for the FORCE 3GR was reported in units of grams of the active ingredient per hectare (g/ha), while the rate of application of the WARRIOR T to the seeds was reported in units of grams of the active ingredient per 100 kilograms of the seeds (g/100 kg). Although the conversion of one of these units to the other will vary somewhat according to the type of seed that is being used, the size and weight of the seed, and the density of planting that is used—among other things—an approximate conversion for corn seed can be carried out as follows. Assuming a seed application rate of lambda cyhalothrin of, for example, 125 g/100 kg of seed and a planting density of 15 lbs seed/ac, about 14.7 acres can be planted with 100 kg of the seed. This is an effective application rate of about 8.5 g of lambda cyhalthrin per acre. At 2.47 ac/ha, the seed treatment level of 125 g/100 kg is approximately equivalent to a surface banding treatment at about 21 g/ha.\nThe corn plants were infested at 12 DAP, which corresponds to late growth stage V1 by placing two black cutworm larvae at ¾ instar on the soil surface near the base of the plant. Plants were rated 3, 7 and 10 days after infestation (DAI) for the number of cut plants, as well as damage from leaf feeding. The percent stand reduction due to plant cutting was calculated by dividing the number of cut plants into the number of plants present at infestation. The foliar feeding injury was evaluated using a rating scale of 1=no damage and 10=complete defoliation."}, "[1]": {"test_system": "corn plants (Pioneer hybrid PN3394)", "assay": "Vigor rating of corn plants before infestation (indication of phytotoxicity)", "assay_type": "in vivo", "details": "rating 1=extremely low vigor, 10=highest", "protocol": "as §1, §2\nAt twelve days after planting (DAP) but before infestation, the overall health of each plant was rated by looking at emergence, height and appearance. This vigor rating gives an indication of any phytotoxicity from the seed or soil treatment. A rating of 1 indicates extremely low vigor while 10 is the highest vigor rating."}}, "data": [{"smiles": "CC1(C)[C@H](C(=O)O[C@H](C#N)c2cccc(Oc3ccccc3)c2)[C@@H]1/C=C(\\Cl)C(F)(F)F", "note": "[λ-cyhalothrin, [1 alpha(s), 3 alpha(z)]-cyano(3-phenoxyphenyl) methyl-3-(2-chloro-3,3,3-trifluoro-1-propenyl)-2,2-dimethylcyclopropane carboxylate]", "values": [{"measurement": "Plant Defol. 3 DAI", "setting": "black cutworm larvae; seed treatment 125 g/100 kg", "result": 4.3}, {"measurement": "Plant Defol. 7 DAI", "setting": "black cutworm larvae; seed treatment 125 g/100 kg", "result": 5.0}, {"measurement": "Plant Defol. 10 DAI", "setting": "black cutworm larvae; seed treatment 125 g/100 kg", "result": 3.3}, {"measurement": "% Stand Reduct'n 3 DAI", "setting": "black cutworm larvae; seed treatment 250 g/100 kg", "result": 3.0, "unit": "%"}, {"measurement": "Plant Defol. 3 DAI", "setting": "black cutworm larvae; seed treatment 250 g/100 kg", "result": 3.7}, {"measurement": "% Stand Reduct'n 7 DAI", "setting": "black cutworm larvae; seed treatment 250 g/100 kg", "result": 3.0, "unit": "%"}, {"measurement": "% Stand Reduct'n 7 DAI", "setting": "black cutworm larvae; seed treatment 250 g/100 kg, listed as lambda-cyhalothrin", "result": 3, "unit": "%"}, {"measurement": "Plant Defol. 7 DAI", "setting": "black cutworm larvae; seed treatment 250 g/100 kg", "result": 2.7}, {"measurement": "% Stand Reduct'n 10 DAI", "setting": "black cutworm larvae; seed treatment 250 g/100 kg", "result": 3.0, "unit": "%"}, {"measurement": "Plant Defol. 10 DAI", "setting": "black cutworm larvae; seed treatment 250 g/100 kg", "result": 1.7}, {"measurement": "% Stand Reduct'n 3 DAI", "setting": "black cutworm larvae; seed treatment 500 g/100 kg", "result": 0.0, "unit": "%"}, {"measurement": "Plant Defol. 3 DAI", "setting": "black cutworm larvae; seed treatment 500 g/100 kg", "result": 2.0}, {"measurement": "% Stand Reduct'n 7 DAI", "setting": "black cutworm larvae; seed treatment 500 g/100 kg", "result": 0.0, "unit": "%"}, {"measurement": "% Stand Reduct'n 7 DAI", "setting": "black cutworm larvae; seed treatment 500 g/100 kg, listed as lambda-cyhalothrin", "result": 0, "unit": "%"}, {"measurement": "Plant Defol. 7 DAI", "setting": "black cutworm larvae; seed treatment 500 g/100 kg", "result": 2.3}, {"measurement": "% Stand Reduct'n 10 DAI", "setting": "black cutworm larvae; seed treatment 500 g/100 kg", "result": 0.0, "unit": "%"}, {"measurement": "Plant Defol. 10 DAI", "setting": "black cutworm larvae; seed treatment 500 g/100 kg", "result": 1.0}, {"measurement": "protection of corn plants against shoot/foliar feeding damage by black cutworm", "setting": "black cutworm larvae; seed treatment prior to planting", "result": "significant protection"}, {"measurement": "Vigor at 12 DAP", "setting": "[1]; seed treatment 125 g/100 kg", "result": 9.0}, {"measurement": "Vigor at 12 DAP", "setting": "[1]; seed treatment 250 g/100 kg", "result": 8.3}, {"measurement": "Vigor at 12 DAP", "setting": "[1]; seed treatment 500 g/100 kg", "result": 8.3}]}, {"smiles": "Cc1c(F)c(F)c(COC(=O)[C@@H]2[C@H](/C=C(\\Cl)C(F)(F)F)C2(C)C)c(F)c1F", "note": "(racemic) [Tefluthrin, (2,3,5,6-tetrafluoro-4-methylphenyl)-methyl-(1 alpha, 3 alpha)-(Z)-(±)-3-(2-chloro-3,3,3-trifluoro-1-propenyl)-2,2-dimethylcyclopropanecarboxylate]", "values": [{"measurement": "% Stand Reduct'n 3 DAI", "setting": "black cutworm larvae; banded 30 g/ha (FORCE 3GR)", "result": 0.0, "unit": "%"}, {"measurement": "Vigor at 12 DAP", "setting": "[1]; banded 30 g/ha (FORCE 3GR)", "result": 8.7}, {"measurement": "Vigor at 12 DAP", "setting": "[1]; in-furrow 30 g/ha (FORCE 3GR)", "result": 9.0}]}]}
